# Test: method code SF-AS, from DOI: 10.1016/0223-5234(89)90056-1
# Conditions: pH 7.4
row,logD,Structure (SMILES)
1,1.95,O=[N+]([O-])c1cn(CCBr)c2ncccc12
2,0.57,CCOC(=O)Cn1cc([N+](=O)[O-])c2cccnc21
3,-0.19,O=C(Cn1cc([N+](=O)[O-])c2cccnc21)NCCO
4,-0.28,O=[N+]([O-])c1cn(CC(O)CO)c2ncccc12 (stereo not given)
5,0.49,Cn1cc([N+](=O)[O-])c2cccnc21
6,-0.12,CCOC(=O)Cn1cccc2c([N+](=O)[O-])cnc1-2
7,-0.09,COc1nc2c(c(=O)n(C)c(=O)n2C)n1C
8,-0.52,O=C(Cn1cccc2c([N+](=O)[O-])cnc1-2)NCCCN1CCOCC1
9,-0.23,O=[N+]([O-])c1c[nH]c2nccnc12
10,-0.15,O=C(Cn1cc([N+](=O)[O-])c2cccnc21)NCCCN1CCOCC1

# — the SangsterLogP compilation
